Measurements published in paper PMC10281575, “PfCRT mutations conferring piperaquine resistance in falciparum malaria shape the kinetics of quinoline drug binding and transport” (PLOS Pathogens, 2023).
Values joined by “and” are separate entries in the source; they are usually repeats but may differ in a detail not shown here. Equal entries are not always repeated. Where two headings read alike, the source gives them in different places.

Molecular target: T1, PfCRT^Dd2_F145I (Plasmodium falciparum, UniProt Q8IBZ9, A220S/F145I/I356T/K76T/M74I/N326S/N75E/Q271E/R371I)
T1 construct: expressed in transfected cells; host or cells: Xenopus laevis oocytes injected with in vitro transcribed RNA (pSP64T)
T1 sequence (Q8IBZ9 1-424 M74I/N75E/K76T/F145I/A220S/Q271E/N326S/I356T/R371I): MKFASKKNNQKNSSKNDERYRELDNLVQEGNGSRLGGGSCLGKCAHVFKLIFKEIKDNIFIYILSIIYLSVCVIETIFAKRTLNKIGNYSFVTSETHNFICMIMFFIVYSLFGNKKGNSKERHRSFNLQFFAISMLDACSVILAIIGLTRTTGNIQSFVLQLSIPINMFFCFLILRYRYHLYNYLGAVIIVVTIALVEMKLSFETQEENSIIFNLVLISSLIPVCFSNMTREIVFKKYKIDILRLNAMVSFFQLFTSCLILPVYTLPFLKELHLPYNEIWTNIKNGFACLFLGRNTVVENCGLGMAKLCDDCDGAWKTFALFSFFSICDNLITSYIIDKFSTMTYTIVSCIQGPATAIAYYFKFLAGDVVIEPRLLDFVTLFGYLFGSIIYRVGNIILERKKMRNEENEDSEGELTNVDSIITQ
Experiment: Competition kinetics of drug transport (radiolabeled substrate plus cold inhibitor), PfCRT^Dd2_F145I-expressing oocytes
Type: cell-based
Conditions: for PfCRTDd2_F145I-mediated CQ transport: 500 µM CQ; for Vmax, maximal velocity of drug transport: global fit; for β, partiality factor: factor on transport of the labeled drug by the other drug
Protocol: To further characterize the kinetic relationship between CQ and PPQ, we performed a series of competition reactions. To this end, water-injected oocytes and PfCRT-expressing oocytes were incubated in medium containing one of seven concentrations of radio-labeled CQ and one of six concentrations of cold PPQ for 60 min before the amount of radio-labeled CQ uptake was determined. The rate of PfCRT-mediated CQ uptake was calculated for each condition by subtracting the corresponding value obtained for water-injected oocytes from those of PfCRT-expressing oocytes. The results were analyzed as a function of the CQ concentration (Fig 4A) and 16 different models of substrate competition were globally fit to the data by the least-squares method, using Python. The models were ranked, according to their Akaike information criterion difference (ΔAICC) and their Akaike weight (Fig 4B), with the most plausible model being the one with the lowest AICC (ΔAICC = 0) and the highest Akaike weight.
A complementary set of experiments was undertaken to investigate the kinetic mechanism by which PfCRT^Dd2_F145I accepts CQ and PPQ (Fig 6). […] These included a global fit of the substrate competition data to the 16 kinetic models (Fig 6), analysis of the secondary plots (Vmax,app and Vmax,app/KM,app as a function of the inhibitor concentration) (Fig 7A), a fractional velocity plot analysis (Fig 7B) and a comparison of the experimental data with the modelled data using the noncompetitive inhibition equation (Fig 7C to 7F). […] The fractional velocity plot illustrated the partial character of the noncompetitive inhibition mechanism by yielding a partiality factor β^CQ = 0.31 ± 0.04, by which PPQ reduces the transport velocity of CQ (Fig 7B). […] A 3D model of the kinetics between PfCRT^Dd2_F145I, CQ and PPQ, and analyses of the residuals as a function of substrate and inhibitor concentrations confirmed that the model was also an appropriate explanation for the mutant transporter (Fig 7C to 7F).
Drug transport assays were performed as previously described. Briefly, measurements of radiolabeled drug uptake were made over 1 h, unless otherwise specified. […] Where specified, one or more unlabeled drugs were also present at the indicated concentrations. The direction of drug transport in the assays is from the extracellular medium (pH 6) into the oocyte cytosol (pH 7.2), which corresponds to the efflux of CQ or PPQ from the acidic digestive vacuole (pH 5.2) into the parasite cytosol (pH 7.2). The uptake assays were terminated by removing the oocytes from the reaction medium and washing them three times with 2 mL of ice-cold ND96 buffer. Each oocyte was transferred to a separate scintillation vial and lysed by the addition of 200 μL of a 5% SDS solution. The radioactivity in the sample was measured using a liquid scintillation analyser Tri-Carb 4910 TR (PerkinElmer). Water-injected oocytes were analyzed in parallel as a negative control. The buffer from each condition was measured in duplicate in parallel to each experiment to transform counts per minute into pmol of drug. Drug uptake attributable to PfCRT was determined by subtracting the background uptake from water-injected oocytes from that of PfCRT-expressing oocytes. In all cases, at least three independent experiments were performed on oocytes from different frogs, and for each condition in an experiment, measurements were made from 10 oocytes per treatment.
The following equations were adopted from Segel (1993), and the reader is referred to that text for the assumptions made in the author’s approach in the derivation of each equation [31]. The concentration of substrate is denoted as [S1] and the concentration of the inhibiting substrate is denoted as [S2]. KS1 and KS2 are the dissociation constants for the respective substrate-protein complexes.
Analyses of the kinetic data were performed using SigmaPlot version 13.0 and Python. […]

CCN(CC)CCCC(C)Nc1ccnc2cc(Cl)ccc12 (stereo not shown) [CQ, chloroquine]
PfCRTDd2_F145I-mediated CQ transport (200 µM PPQ): 12.08 pmol oocyte-1 h-1 and 15.16 pmol oocyte-1 h-1 and 13.13 pmol oocyte-1 h-1
PfCRTDd2_F145I-mediated CQ transport (350 µM PPQ): 10.85 pmol oocyte-1 h-1 and 12.45 pmol oocyte-1 h-1 and 11.74 pmol oocyte-1 h-1
most plausible inhibition model (16 models, ΔAICC, Akaike weight, secondary plots): partial noncompetitive inhibition
Vmax, maximal velocity of drug transport (Mixed (Partial) model, drug as radiolabeled substrate): 34 ± 2 pmol oocyte^-1 h^-1
Kd (Mixed (Partial) model, drug as cold inhibitor, read-out: KS, dissociation constant for the PfCRT-substrate complex): 200 ± 90 µM
Kd (Mixed (Partial) model, drug as radiolabeled substrate, read-out: KS, dissociation constant for the PfCRT-substrate complex): 350 ± 50 µM
β, partiality factor (Mixed (Partial) model): 0.41 ± 0.08
α, KS interaction factor (Mixed (Partial) model, label = radiolabeled substrate, other drug cold inhibitor): 1.0 ± 0.3
Vmax, maximal velocity of drug transport (Noncompetitive (Partial) model, drug as radiolabeled substrate, other drug as cold inhibitor): 34 pmol oocyte^-1 h^-1 and 34 ± 2 pmol oocyte^-1 h^-1
Kd (Noncompetitive (Partial) model, drug as cold inhibitor, read-out: KS, dissociation constant for the PfCRT-substrate complex): 225 µM and 230 µM
Kd (Noncompetitive (Partial) model, drug as radiolabeled substrate, read-out: KS, dissociation constant for the PfCRT-substrate complex): 357 µM and 360 µM
β, partiality factor (Noncompetitive (Partial) model): 0.40 and 0.40 ± 0.04
KMapp ([3H]CQ + PPQ) ([PPQ] 0 µM): 355.22 µM
Vmaxapp ([3H]CQ + PPQ) ([PPQ] 0 µM): 32.70 pmol oocyte-1 h-1
Vmaxapp/KMapp ([3H]CQ + PPQ) ([PPQ] 0 µM): 0.0962 h⁻¹
KMapp ([3H]CQ + PPQ) ([PPQ] 50 µM): 351.46 µM
Vmaxapp ([3H]CQ + PPQ) ([PPQ] 50 µM): 27.98 pmol oocyte-1 h-1
Vmaxapp/KMapp ([3H]CQ + PPQ) ([PPQ] 50 µM): 0.0844 h⁻¹
KMapp ([3H]CQ + PPQ) ([PPQ] 125 µM): 355.14 µM
Vmaxapp ([3H]CQ + PPQ) ([PPQ] 125 µM): 25.60 pmol oocyte-1 h-1
Vmaxapp/KMapp ([3H]CQ + PPQ) ([PPQ] 125 µM): 0.0728 h⁻¹
KMapp ([3H]CQ + PPQ) ([PPQ] 200 µM): 365.31 µM
Vmaxapp ([3H]CQ + PPQ) ([PPQ] 200 µM): 21.83 pmol oocyte-1 h-1
Vmaxapp/KMapp ([3H]CQ + PPQ) ([PPQ] 200 µM): 0.0619 h⁻¹
KMapp ([3H]CQ + PPQ) ([PPQ] 350 µM): 375.85 µM
Vmaxapp ([3H]CQ + PPQ) ([PPQ] 350 µM): 19.75 pmol oocyte-1 h-1
Vmaxapp/KMapp ([3H]CQ + PPQ) ([PPQ] 350 µM): 0.0554 h⁻¹
KMapp ([3H]CQ + PPQ) ([PPQ] 500 µM): 353.13 µM
Vmaxapp ([3H]CQ + PPQ) ([PPQ] 500 µM): 17.90 pmol oocyte-1 h-1
Vmaxapp/KMapp ([3H]CQ + PPQ) ([PPQ] 500 µM): 0.0540 h⁻¹
β^CQ, partiality factor (fractional velocity plot, factor by which PPQ reduces the transport velocity of CQ): 0.31 ± 0.04
Kd (secondary plot, half-maximal inhibitory concentration of Vmax,app versus inhibitor concentration, read-out: αKS, dissociation constant between the drug and the PfCRT complex with the other drug): 210 ± 120 µM
Kd (secondary plot, half-maximal inhibitory concentration of Vmax,app/KM,app versus inhibitor concentration, read-out: KS, dissociation constant between the drug and PfCRT): 250 ± 150 µM
α (αKS divided by KS) (secondary plots, label = prebound drug): 1.0 ± 0.3
